Like-named read-outs stand apart in the source and are kept apart here. Where a SMILES comes first, the peptide text is derived from it. The star is where a group is joined. Myristoyl = CCCCCCCCCCCCCC(=O)*
Key:
[1] = tested on: RSV infection of NHBE cells; assay: RSV infection of NHBE cells treated with signaling inhibitors, FITC anti-RSV mab staining and cell counting; type: cell-based, respiratory syncytial virus (RSV); conditions: inhibitor 2 h before and 48 h after RSV, AG 490 50 μM, PD98059 80 μM, RO318220 3 μM, Wortmannin 300 nM
Procedure: NHBE cells were treated with different inhibitors for 2 hours at concentration as: AG 490 (50 μM), PD98059 (80 μM), RO318220 (3 μM), and Wortmannin (300 nM). DMSO was used as a mock control. The inhibitors were removed and the cells were infected with RSV for 2 hours. After the RSV was removed, the growth medium with the same concentration of inhibitors was added to the cells for 48 hours. The cells were rinsed with PBS prior to staining with FITC-labeled Anti-RSV monoclonal antibody (mab) (CHEMICON, Temecula, Calif.). The total cells and RSV positive cells were counted randomly from 15 to 20 different spots.
To determine if different signaling molecules related to the ERK pathway are required for a successful RSV infection, primary NHBE cells were exposed to various inhibitors previously to being infected with a sucrose-purified RSV preparation. […] Also, other PKC isoforms are activated later during the infection, which could potentially play a role in the late phase of ERK activation (Monick, M. et al., J Immunol, 166(4):2681-2687, 2001).

[2] = tested on: RSV infection of NHBE cells; assay: RSV infection of NHBE cells pre-treated with PKC inhibitors, single cell immunofluorescence assay; type: cell-based, respiratory syncytial virus (RSV); conditions: for number of infected cells, dose dependence: inhibitor 30 min before infection; for IC50: 16 h, read-out: concentration at which 50% inhibition of infected cells was reached

Compound	number of RSV infected cells [1]	number of infected cells, dose dependence ([2]; NHBE cells, RSV 1 MOI)	other results
N#C/C(=C/c1ccc(O)c(O)c1)C(=O)NCc1ccccc1 [AG490]	significant reduction	–	number of RSV infected cells ([1]; listed as AG 490): substantially decrease
COc1ccc2c(c[n+](C)c3c4cc5c(cc4ccc23)OCO5)c1OC [Chelerythrine]	–	reduced in a dose-dependent manner	IC50 ([2]; human respiratory syncytial virus, NHBE): 7.5 µM
CCCCCCCCCCCCCC(=O)N[C@@H](Cc1ccccc1)C(=O)N[C@@H](C)C(=O)N[C@@H](CCCNC(=N)N)C(=O)N[C@@H](CCCCN)C(=O)NCC(=O)N[C@@H](C)C(=O)N[C@@H](CC(C)C)C(=O)N[C@@H](CCCNC(=N)N)C(=O)N[C@@H](CCC(N)=O)C(N)=O [N-Myr-Phe-Ala-Arg-Lys-Gly-Ala-Leu-Arg-Gln] (Myristoyl-FARKGALRQ-NH2; N-terminus and C-terminus assumed)	–	–	solubility in water: soluble in water
COc1cccc(-c2cc(=O)c3ccccc3o2)c1N [PD98059]	significant reduction	–	–
Cn1cc(C2=C(c3cn(CCCSC(=N)N)c4ccccc34)C(=O)NC2=O)c2ccccc21 [Ro318220]	significant reduction	–	number of RSV infected cells ([1]; listed as RO318220): substantially decrease
Calphostin C	–	reduced in a dose-dependent manner	IC50 ([2]; NHBE cells, RSV 1 MOI): 0.375 µM

From US20140213604A1, “PROTEIN KINASE C AS A TARGET FOR THE TREATMENT OF RESPIRATORY SYNCYTIAL VIRUS” (priority 2002, published 2014)
